Patent US8063221B2, “Aminoquinolones as GSK-3 inhibitors” (Kyorin Pharmaceutical Co., Ltd., priority 2006, dated 2011)
≈ marks a conversion by molar mass, not a printed value. Like-named read-outs stand apart in the source and are kept apart here. Values belong to the compound of their own block, whether it stands above or below them.

Tests used:
[1] = molecular target: T1, recombinant full-length human GSK3β (Homo sapiens, UniProt P49841); test: Luciferase-coupled cell-free GSK3β kinase assay; format: biochemical
T1 construct: recombinant full-length human GSK3β (Upstate); purchased Upstate
T1 sequence (P49841 whole entry): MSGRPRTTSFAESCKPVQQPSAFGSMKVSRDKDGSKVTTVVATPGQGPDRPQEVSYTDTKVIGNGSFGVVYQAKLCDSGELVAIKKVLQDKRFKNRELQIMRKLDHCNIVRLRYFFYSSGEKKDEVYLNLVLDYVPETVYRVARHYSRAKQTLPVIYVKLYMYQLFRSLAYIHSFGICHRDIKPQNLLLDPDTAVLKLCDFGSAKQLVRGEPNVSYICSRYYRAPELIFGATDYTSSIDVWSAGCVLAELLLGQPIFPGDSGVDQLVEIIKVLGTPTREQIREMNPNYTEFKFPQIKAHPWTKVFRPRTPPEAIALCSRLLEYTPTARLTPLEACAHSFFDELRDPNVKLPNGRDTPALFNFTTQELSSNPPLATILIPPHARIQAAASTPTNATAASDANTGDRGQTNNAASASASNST
Experimental: For compounds in Tables 1 and 2, IC50 (μM) for GSK3β enzyme in cell free assay is provided as follows:
Luciferase-Coupled Protein Kinase Assays
All coupled-luciferase assays are performed by using a brief incubation with firefly luciferase (Promega) after completion of the kinase assay. KinaseGlo Plus is used for reading kinase reactions with ATP>10 μM, KinaseGlo for ATP <10 μM. The assay volume in a 384-well plate for the kinase reaction is 30 microliters.
10-25 ng of recombinant full-length human GSK3β (Upstate) is incubated in the presence or absence of compound at varying concentrations for 1 hour at 30 degrees Celsius in 20 mM MOPS, pH 7.0, 10 mM magnesium acetate, 0.2 mM EDTA, 2 mM EGTA, 30 mM magnesium chloride, 62.5 μM phospho-glycogen synthase peptide-2, 5 μM ATP, 10 mM β-glycerol phosphate, 1 mM sodium orthovanadate and 1 mM dithiothreitol. Proceed to KinaseGlo luciferase reaction (see below).
Following the completion of the kinase reaction an equal volume of KinaseGlo or KinaseGlo Plus luciferase reagent (Promega) is added and the luminescence read using a luminescence plate reader within 5-10 minutes. Compound activity is expressed as % inhibition relative to maximal inhibition observed at the maximal dose and IC50 values then calculated using curve fitting software (GraphPad Prizm).

E. coli, ATCC8739 = test: Antibacterial activity (MIC), E. coli; format: cell-based; conditions: Escherichia coli
Description: (§1) As used herein, a minimum inhibitory concentration (MIC) for bacterial growth assay is the lowest level of a compound needed to cause an inhibition to bacterial growth in culture medium. In certain embodiments, the antibacterial activity of compounds herein, measured as MIC.
(§2) In certain embodiments, GSK3 inhibitors provided herein are substantially free of antibacterial activity or having very low antibacterial activity. The antibacterial activity can be measured by methods known in the art by estimating a minimum inhibitory concentration (MIC) for test compounds. A MIC is the lowest level of a compound needed to cause an inhibition to bacterial growth in a culture medium. […] (Clinical and Laboratory Standards Institute. Methods for Dilution Antimicrobial Susceptibility Tests for Bacteria That Grow Aerobically; Approved Standard-Sixth Edition: CLSI document […]. CLSI, Wayne, Pa. (2003))
(§3) Antibacterial activity for E. coli, ATCC8739 andS. aureus Smith expressed as MIC (μM) is provided as follows: […]

S. aureus Smith = test: Antibacterial activity (MIC), S. aureus; format: cell-based; conditions: Staphylococcus aureus
Description: as §1, §2, §3

[2] = ATCC8739, Table 1, E. coli ATCC8739, read-out: Antibacterial MIC (μM) E.Coli
[3] = Table 1, read-out: Antibacterial MIC (μM) S. aureus Smith
[4] = ATCC8739, Table 2, E. coli ATCC8739, read-out: Antimicrobial MIC [μM] E. Coli
[5] = Table 2, S. aureus Smith, read-out: Antimicrobial MIC [μM] S. aureus

SMILES: Nc1c(F)c(NCCCCc2ccccc2)c(F)c2c1c(=O)c(C(=O)O)cn2C1CC1 [compound 20]
IC50 ([1]; Table 1): 100 to 500 nM
MIC (E. coli, ATCC8739; [2]): 10 to 50 µM (≈ 4.27 to 21.4 µg/mL)
MIC (S. aureus Smith; [3]): 0.5 to 10 µM (≈ 0.214 to 4.27 µg/mL)

SMILES: COc1c(NCCCc2ccccc2)c(F)c(N)c2c(=O)c(C(=O)O)cn(C3CCCC3)c12 [compound 79]
IC50 ([1]; Table 1): 100 to 500 nM
MIC (E. coli, ATCC8739; ATCC8739, read-out: Antibacterial MIC (μM) E.Coli): 10 to 50 µM (≈ 4.54 to 22.7 µg/mL)
MIC (S. aureus Smith; read-out: Antibacterial MIC (μM) S. aureus Smith): 10 to 50 µM (≈ 4.54 to 22.7 µg/mL)

SMILES: COc1c(NCCNc2ccccn2)c(F)c(N)c2c(=O)c(C#N)cn(C3CC3)c12 [Example 142]
IC50 ([1]; Table 2): < 100 nM
MIC (E. coli, ATCC8739; [4]): > 50 µM
MIC (S. aureus Smith; [5]): > 50 µM

SMILES: C[C@H]1COc2c(NCCCC3CCCCC3)c(F)c(N)c3c(=O)c(C(=O)O)cn1c23 [Example 103]
IC50 ([1]; Table 2): < 100 nM
MIC (E. coli, ATCC8739; [4]): 10 to 50 µM (≈ 4.17 to 20.9 µg/mL)
MIC (S. aureus Smith; [5]): 10 to 50 µM (≈ 4.17 to 20.9 µg/mL)

SMILES: Cc1c(C(=O)O)c(=O)c2c(N)c(F)c(NCCNc3ccccn3)c(OC(C)C)c2n1C1CC1 [Example 127]
IC50 ([1]; Table 2): 100 to 500 nM
MIC (E. coli, ATCC8739; [4]): 10 to 50 µM (≈ 4.7 to 23.5 µg/mL)
MIC (S. aureus Smith; [5]): 0.5 to 10 µM (≈ 0.235 to 4.7 µg/mL)

SMILES: Nc1c(F)c(NCCNc2ccccn2)c2c3c1c(=O)c(C(=O)O)cn3[C@@H](c1ccccc1)CO2 [Example 124]
IC50 ([1]; Table 2): 100 to 500 nM
MIC (E. coli, ATCC8739; [4]): 10 to 50 µM (≈ 4.75 to 23.8 µg/mL)
MIC (S. aureus Smith; [5]): 10 to 50 µM (≈ 4.75 to 23.8 µg/mL)

SMILES: Nc1c(F)c(NCCNc2ccccn2)c(F)c2c1c(=O)c(C(=O)O)cn2C1CC1 [compound 7]
IC50 ([1]; Table 1): 100 to 500 nM
MIC (E. coli, ATCC8739; [2]): 0.5 to 10 µM (≈ 0.208 to 4.15 µg/mL)
MIC (S. aureus Smith; [3]): 0.5 to 10 µM (≈ 0.208 to 4.15 µg/mL)

SMILES: COc1c(NCCNc2ccccn2)c(F)c(N)c2c(=O)c(C(=O)O)cn(Cc3ccccc3)c12 [Example 130]
IC50 ([1]; Table 2): > 1000 nM
MIC (E. coli, ATCC8739; [4]): 0.5 to 10 µM (≈ 0.239 to 4.77 µg/mL)
MIC (S. aureus Smith; [5]): 0.5 to 10 µM (≈ 0.239 to 4.77 µg/mL)

SMILES: CC1COc2c(NCCNc3nc(F)c(F)cc3F)c(F)c(N)c3c(=O)c(C(=O)O)cn1c23 (stereo not drawn) [compound 13]
IC50 ([1]; Table 2): < 100 nM
MIC (E. coli, ATCC8739; [4]): 10 to 50 µM (≈ 4.67 to 23.4 µg/mL)
MIC (S. aureus Smith; [5]): 0.5 to 10 µM (≈ 0.234 to 4.67 µg/mL)

SMILES: Nc1c(F)c(NCCc2ccncc2)c(F)c2c1c(=O)c(C(=O)O)cn2C1CC1 [compound 3]
IC50 ([1]; Table 1): 100 to 500 nM
MIC (E. coli, ATCC8739; [2]): 0.5 to 10 µM (≈ 0.2 to 4 µg/mL)
MIC (S. aureus Smith; [3]): < 0.5 µM

Continued, values first:

IC50 ([1]; Table 2): 100 to 500 nM
MIC (E. coli, ATCC8739; [4]): 0.5 to 10 µM (≈ 0.221 to 4.41 µg/mL)
MIC (S. aureus Smith; [5]): 0.5 to 10 µM (≈ 0.221 to 4.41 µg/mL)
SMILES: CC1(C)COc2c(NCCNc3ccccn3)c(F)c(N)c3c(=O)c(C(=O)O)cn(c23)C1 [compound 24]

IC50 ([1]; Table 2): < 100 nM
MIC (E. coli, ATCC8739; [4]): > 50 µM
MIC (S. aureus Smith; [5]): > 50 µM
SMILES: CC1(C)COc2c(NCCCN3CCCC3=O)c(F)c(N)c3c(=O)c(C(=O)O)cn1c23 [compound 41]

IC50 ([1]; Table 1): > 1000 nM
MIC (E. coli, ATCC8739; [2]): 10 to 50 µM (≈ 4.41 to 22.1 µg/mL)
MIC (S. aureus Smith; [3]): 10 to 50 µM (≈ 4.41 to 22.1 µg/mL)
SMILES: COc1c(NCCCOc2ccccc2)c(F)c(N)c2c(=O)c(C(=O)O)cn(C3CC3)c12 [compound 82]

IC50 ([1]; Table 1): < 100 nM
MIC (E. coli, ATCC8739; [2]): 10 to 50 µM (≈ 4.78 to 23.9 µg/mL)
MIC (S. aureus Smith; [3]): 10 to 50 µM (≈ 4.78 to 23.9 µg/mL)
SMILES: Nc1c(F)c(NCCCc2ccccc2)c(F)c2c1c(=O)c(C(=O)O)cn2CCc1ccccc1 [compound 46]

IC50 ([1]; Table 1): < 100 nM
MIC (E. coli, ATCC8739; [2]): > 50 µM
MIC (S. aureus Smith; [3]): > 50 µM
SMILES: Nc1c(F)c(NCCCn2ccnc2)c(F)c2c1c(=O)ccn2C1CCCC1 [compound 74]

IC50 ([1]; Table 2): 100 to 500 nM
MIC (E. coli, ATCC8739; [4]): 10 to 50 µM (≈ 4.65 to 23.3 µg/mL)
MIC (S. aureus Smith; [5]): 10 to 50 µM (≈ 4.65 to 23.3 µg/mL)
SMILES: CC1(C)Cn2cc(C(=O)O)c(=O)c3c(N)c(F)c(NCCCn4cnc5ccccc54)c(c32)O1 [compound 56]

IC50 ([1]; Table 1): 500 to 1000 nM
MIC (E. coli, ATCC8739; [2]): 10 to 50 µM (≈ 4.15 to 20.8 µg/mL)
MIC (S. aureus Smith; [3]): 10 to 50 µM (≈ 4.15 to 20.8 µg/mL)
SMILES: CC(C)OCCCNc1c(F)c(N)c2c(=O)ccn(CCc3ccccc3)c2c1F [compound 60]

IC50 ([1]; Table 1): < 100 nM
MIC (E. coli, ATCC8739; [2]): > 50 µM
MIC (S. aureus Smith; [3]): > 50 µM
SMILES: Nc1c(F)c(NCCNc2ccccn2)c(F)c2c1c(=O)ccn2C1CCCC1 [compound 76]

IC50 ([1]; Table 1): 500 to 1000 nM
MIC (E. coli, ATCC8739; [2]): 10 to 50 µM (≈ 4.12 to 20.6 µg/mL)
MIC (S. aureus Smith; [3]): 0.5 to 10 µM (≈ 0.206 to 4.12 µg/mL)
SMILES: COc1c(NCCc2ccncc2)c(F)c(N)c2c(=O)c(C(=O)O)cn(C3CC3)c12 [compound 68]

IC50 ([1]; Table 1): 100 to 500 nM
MIC (E. coli, ATCC8739; [2]): 10 to 50 µM (≈ 5.29 to 26.4 µg/mL)
MIC (S. aureus Smith; [3]): 10 to 50 µM (≈ 5.29 to 26.4 µg/mL)
SMILES: Nc1c(F)c(NCCNc2cccc3ccccc23)c(F)c2c1c(=O)c(C(=O)O)cn2CCc1ccccc1 [compound 51]

IC50 ([1]; Table 2): 100 to 500 nM
MIC (E. coli, ATCC8739; [4]): 10 to 50 µM (≈ 4.25 to 21.3 µg/mL)
MIC (S. aureus Smith; [5]): 10 to 50 µM (≈ 4.25 to 21.3 µg/mL)
SMILES: CC1(C)Cn2cc(C(=O)O)c(=O)c3c(N)c(F)c(NCCCc4ccccc4)c(c32)O1 [compound 59]

IC50 ([1]; Table 1): < 100 nM
MIC (E. coli, ATCC8739; [2]): 10 to 50 µM (≈ 4.15 to 20.8 µg/mL)
MIC (S. aureus Smith; [3]): 0.5 to 10 µM (≈ 0.208 to 4.15 µg/mL)
SMILES: COc1c(NCCCn2ccnc2)c(F)c(N)c2c(=O)c(C(=O)O)cn(C3CC3)c12 [compound 69]

IC50 ([1]; Table 1): > 1000 nM
MIC (E. coli, ATCC8739; [2]): > 50 µM
MIC (S. aureus Smith; [3]): 10 to 50 µM (≈ 4.4 to 22 µg/mL)
SMILES: COc1c(NCCc2ccncc2)c(F)c(N)c2c(=O)c(C(=O)O)cn(C3CCCC3)c12 [compound 80]
